From patent US20060189591A1, “Five-membered heterocyclic derivative” (DAIICHI PHARMACEUTICAL CO., LTD., priority 2003, published 2006)
Counter-ions that a name gives are not always drawn. Like-named read-outs stand apart in the source and are kept apart here.

How the values were obtained:
[1] = system: collagen-induced platelet aggregation; settings: cited from earlier work
[2] = system: collagen-induced platelet aggregation; assay: Inhibitory activity for platelet aggregation (collagen-induced, human platelet rich plasma); type: cell-based; settings: human PRP, read-out: Inhibition of collagen-induced platelet aggregation, IC50
Experimental: Inhibitory Activity for Platelet Aggregation
Human blood was collected in the presence of 3.13% sodium citrate as an anticoagulant in a volume 1/10 the blood volume. The collected blood was centrifuged at 180×g for 10 minutes so as to separate the upper layer; i.e., platelet rich plasma (PRP) from the blood. The remaining lower layer was further centrifuged at 1,600×g for 10 minutes, and platelet poor plasma ([…]); i.e., the thus-obtained upper layer, was collected. A solution (1 μL) of the compound of the Examples was added to PRP (200 μL), and the mixture was allowed to stand at 37° C. for 2 minutes. Subsequently, collagen (2 μL) was added to the resultant mixture so as to induce platelet aggregation. Percentage of platelet aggregation was measured using PAM-12C (SSR Engineering). Optical transmittance of PPP was employed as the value reflecting the state in which 100% aggregation occurred. Percent of platelet aggregation values of PRP were determined at a series of concentrations of each Example compound and IC50 of each compound was calculated.

Cyclooxygenase-1 (COX-1) = biological target: T1, Cyclooxygenase-1 (COX-1) (Ovis aries, UniProt P05979); assay: COX Inhibitor Screening Assay Kit, COX-1; type: biochemical; settings: 50 μM compound; read-out: Inhibitory effect against COX-1 at 50 μM (% inhibition)
T1 construct: purchased Cayman Chemical Company 560101
T1 sequence (P05979 25-600): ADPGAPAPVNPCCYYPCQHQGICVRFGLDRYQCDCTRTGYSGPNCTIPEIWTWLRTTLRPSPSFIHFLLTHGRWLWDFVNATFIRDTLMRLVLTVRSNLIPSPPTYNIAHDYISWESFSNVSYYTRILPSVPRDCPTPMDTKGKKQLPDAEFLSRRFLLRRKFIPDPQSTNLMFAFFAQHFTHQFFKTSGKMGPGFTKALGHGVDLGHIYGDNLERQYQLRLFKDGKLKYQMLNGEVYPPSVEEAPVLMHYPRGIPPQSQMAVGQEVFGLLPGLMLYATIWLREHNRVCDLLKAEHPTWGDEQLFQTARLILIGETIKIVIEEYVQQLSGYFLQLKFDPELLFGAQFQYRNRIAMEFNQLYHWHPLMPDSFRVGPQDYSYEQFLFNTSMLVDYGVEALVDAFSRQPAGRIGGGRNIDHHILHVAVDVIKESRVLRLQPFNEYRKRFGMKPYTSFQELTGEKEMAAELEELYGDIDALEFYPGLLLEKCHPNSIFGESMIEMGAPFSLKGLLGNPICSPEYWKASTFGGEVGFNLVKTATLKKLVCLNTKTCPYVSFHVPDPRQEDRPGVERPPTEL
Experimental: (§1) Inhibitory Effects on Cyclooxygenase-1 (COX-1) and Cyclooxygenase-2 (COX-2)
(§2) Inhibitory activity against COX-1 and COX-2 of the compounds produced in the Examples was measured by use of a COX Inhibitor Screening Assay Kit (product of Cayman Chemical Company, Catalog Nos. 560101 and 560121).
(§3) Before starting the measurement, reaction buffer, heme, arachidonic acid, SnCl2, EIA buffer, washing buffer, prostaglandin (PG) screening EIA standard, PG screening acetylcholine esterase (AchE), tracer (chromogenic enzyme […] conjugate), and PG screening EIA antiserum were prepared ready for use.
(§4) (1) Production of PGF2α in the presence of COX-1 or COX-2
(§5) A reaction mixture containing the compound of the Examples (50 μM) and COX-1 or COX-2 was allowed to stand at 37° C. for 10 minutes. Arachidonic acid ([…]) was added thereto, and the resultant mixture was further allowed to stand at 37° C. for 2 minutes. 1N-Hydrochloric acid (50 μL) was added to the reaction mixture, to thereby stop the reaction. SnCl2 solution (100 μL) was added thereto, and the resultant mixture was allowed to stand at room temperature for 5 minutes.
(§6) (2) Quantitative Determination of PGF2α using ELISA
(§7) Antiserum (rabbit anti-PGF2α antibody, 50 μL) was added to the wells of 96 well plate that had been coated with mouse anti-rabbit IgG. A solution of PGF2α-containing mixture obtained above (2000-fold diluted, 50 μL) and AchE tracer (50 μL) were added to the well in this order, and the mixture was allowed to stand at room temperature for 18 hours. The wells were washed 5 times with the washing buffer to remove an excessive AchE tracer, and Ellman reagent (200 μL) was added. After leaving the plate in a dark room for 60 minutes, absorbance was measured at 405 nm.
(§8) (3) Calculation of Inhibitory Activity of the Compound of the Examples
(§9) A calibration curve was obtained by use of the PG screening EIA standard, and the production amount of PGF2α was determined from the absorbance above. Percent inhibition against COX-1 or COX-2 at 50 μM of the compound of the Examples was calculated.

Cyclooxygenase-2 (COX-2) = biological target: T2, Cyclooxygenase-2 (COX-2) (Homo sapiens, UniProt P35354); assay: COX Inhibitor Screening Assay Kit, COX-2; type: biochemical; settings: 50 μM compound; read-out: Inhibitory effect against COX-2 at 50 μM (% inhibition)
T2 construct: purchased Cayman Chemical Company 560121
T2 sequence (P35354 18-604): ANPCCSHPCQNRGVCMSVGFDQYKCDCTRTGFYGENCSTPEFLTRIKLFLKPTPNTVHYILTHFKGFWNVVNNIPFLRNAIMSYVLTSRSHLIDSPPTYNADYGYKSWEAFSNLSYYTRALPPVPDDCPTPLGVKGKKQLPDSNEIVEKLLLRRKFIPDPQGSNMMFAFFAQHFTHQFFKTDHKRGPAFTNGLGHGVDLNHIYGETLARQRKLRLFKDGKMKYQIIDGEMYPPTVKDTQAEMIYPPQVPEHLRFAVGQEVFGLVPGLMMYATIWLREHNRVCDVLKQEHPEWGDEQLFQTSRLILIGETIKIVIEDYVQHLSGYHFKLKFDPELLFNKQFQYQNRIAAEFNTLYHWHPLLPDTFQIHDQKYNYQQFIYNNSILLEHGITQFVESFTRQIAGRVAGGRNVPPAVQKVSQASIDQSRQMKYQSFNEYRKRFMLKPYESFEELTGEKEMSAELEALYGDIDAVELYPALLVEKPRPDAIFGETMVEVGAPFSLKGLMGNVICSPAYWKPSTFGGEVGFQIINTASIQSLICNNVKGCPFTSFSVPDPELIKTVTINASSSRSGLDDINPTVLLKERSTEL
Experimental: as §1, §2, §3, §4, §5, §6, §7, §8, §9

COX = settings: background art; cited from earlier work

For `CS(=O)(=O)c1ccc(-c2cc(C#N)nn2-c2ccc(F)cc2)cc1` [Compound (A)], the IC50 ([1]; prior-art compound, background art, read-out: IC50 value against collagen-induced platelet aggregation) is listed as 5300 nM.

For `COc1ccc(-c2nc(C(=O)N3CCN(C)CC3)cn2-c2ccc(F)cc2)cn1` [Example 6, 1-[1-(4-Fluorophenyl)-2-(6-methoxy-3-pyridyl)-1H-imidazole-4-carbonyl]-4-methylpiperazine], the IC50 [2] was 330 nM, the inhibition at 50 µM (Cyclooxygenase-1 (COX-1)) was 28.4% and the inhibition at 50 µM (Cyclooxygenase-2 (COX-2)) was 23.4%.

With `CN1CCN(C(=O)c2nc(-c3ccccc3)c(-c3ccccc3)o2)CC1` [Example 25, 1-(4,5-diphenyloxazole-2-carbonyl)-4-methylpiperazine] the IC50 [2] was 710 nM, the inhibition at 50 µM (Cyclooxygenase-1 (COX-1)) was 3.1% and the inhibition at 50 µM (Cyclooxygenase-2 (COX-2)) was -8.7%.

Work on `Cc1ccc(-n2cc(C(=O)N3CCN(C)C(=O)C3)nc2-c2ccc(C)nc2)cc1` [Example 32, 1-[1-(4-Methylphenyl)-2-(6-methyl-3-pyridyl)-1H-imidazole-4-carbonyl]-4-methyl-3-oxopiperazine] yielded an IC50 [2] of 410 nM, an inhibition at 50 µM (Cyclooxygenase-1 (COX-1)) of 5.6% and an inhibition at 50 µM (Cyclooxygenase-2 (COX-2)) of -2.2%.

`COc1ccc(-n2nc(C(=O)N3CCN(C)CC3)nc2-c2ccc(C)cc2)cn1` [Example 37, 1-[1-(6-Methoxy-3-pyridyl)-5-(4-methylphenyl)-1H-1,2,4-triazole-3-carbonyl]-4-methylpiperazine hydrochloride] showed an IC50 [2] of 270 nM, an inhibition at 50 µM (Cyclooxygenase-1 (COX-1)) of -3.2% and an inhibition at 50 µM (Cyclooxygenase-2 (COX-2)) of -0.8%.

Compound `COc1ccc(-c2nc(C(=O)N3CCN(C)CC3)nn2-c2ccc(C)cc2)cn1` [Example 38, 1-[5-(6-Methoxy-3-pyridyl)-1-(4-methylphenyl)-1H-1,2,4-triazole-3-carbonyl]-4-methylpiperazine hydrochloride] has an IC50 [2] of 320 nM, an inhibition at 50 µM (Cyclooxygenase-1 (COX-1)) of 3.5% and an inhibition at 50 µM (Cyclooxygenase-2 (COX-2)) of 10.7%.

`COc1ccc(-c2nc(C(=O)N3CCC(F)(F)CC3)cn2-c2ccccn2)cn1` [Example 63, 1-[2-(6-Methoxy-3-pyridyl)-1-(2-pyridyl)-1H-imidazole-4-carbonyl]-4,4-difluoropiperidine] gave an IC50 [2] of 20 nM, an inhibition at 50 µM (Cyclooxygenase-1 (COX-1)) of 3.4% and an inhibition at 50 µM (Cyclooxygenase-2 (COX-2)) of 7.5%.

`COc1ccc(-c2nc(C(=O)N3CCC(F)CC3)cn2-c2ccccn2)cn1` [Example 64, 1-[2-(6-Methoxy-3-pyridyl)-1-(2-pyridyl)-1H-imidazole-4-carbonyl]-4-fluoropiperidine] showed an IC50 [2] of 60 nM, an inhibition at 50 µM (Cyclooxygenase-1 (COX-1)) of -1.4% and an inhibition at 50 µM (Cyclooxygenase-2 (COX-2)) of 4.5%.

For `COc1ccc(-c2nc(C(=O)N3CCC(OC)CC3)cn2-c2ccccn2)cn1` [Example 65, 1-[2-(6-Methoxy-3-pyridyl)-1-(2-pyridyl)-1H-imidazole-4-carbonyl]-4-methoxypiperidine], the IC50 [2] was 120 nM.

Compound `COc1ccc(-n2nc(C(=O)N3CCN(C)CC3)nc2-c2ccccn2)cn1` [Example 66, 1-[1-(6-Methoxy-3-pyridyl)-5-(2-pyridyl)-1H-1,2,4-triazole-3-carbonyl]-4-methylpiperazine] has an IC50 [2] of 700 nM.

With `COc1ccc(-n2nc(C(=O)N3CCC(F)(F)CC3)nc2-c2ccc(C#N)cn2)cn1` [Example 67, 1-[5-(5-Cyano-2-pyridyl)-1-(6-methoxy-3-pyridyl)-1H-1,2,4-triazole-3-carbonyl]-4,4-difluoropiperidine] the IC50 [2] was 220 nM.

Compound `COc1ccc(-n2nc(C(=O)N3CCC(F)(F)CC3)nc2-c2ccc(F)cn2)cn1` [Example 71, 1-[5-(5-Fluoro-2-pyridyl)-1-(6-methoxy-3-pyridyl)-1H-1,2,4-triazole-3-carbonyl]-4,4-difluoropiperidine] has an IC50 [2] of 190 nM and an inhibition at 50 µM (Cyclooxygenase-1 (COX-1)) of 35.2%.

For `COc1ccc(-c2nc(C(=O)N3CCC[C@@H](F)C3)cn2-c2ccccn2)cn1` [Example 72, (3R)-1-[2-(6-Methoxy-3-pyridyl)-1-(2-pyridyl)-1H-imidazole-4-carbonyl]-3-fluoropiperidine], the IC50 [2] was 110 nM and the inhibition at 50 µM (Cyclooxygenase-1 (COX-1)) was 39%.

For `COc1ccc(-n2nc(C(=O)N3CCC(F)(F)CC3)nc2-c2ccc(C)cn2)cn1` [Example 74, 1-[1-(6-Methoxy-3-pyridyl)-5-(5-methyl-2-pyridyl)-1H-1,2,4-triazole-3-carbonyl]-4,4-difluoropiperidine], the IC50 [2] was 21 nM and the inhibition at 50 µM (Cyclooxygenase-1 (COX-1)) was 46.9%.

In the case of `COc1ccc(-c2cc(C(F)F)nn2-c2ccc(S(N)(=O)=O)cc2)cc1F` [compound (B)], the “platelet aggregation inhibitory activity” value ([1]; compared with inhibitory activity against COX-2) is given as “not so strong compared with its inhibitory activity against COX-2”.

In the case of `COc1ccc(-c2nc(C(=O)N3CCN(C)CC3)sc2-c2ccc(OC)cc2)cc1` [thiazole derivative (C)], the COX inhibiting effect (COX) is given as “inhibits COX”.
